Measured values reported in patent publication EP4680608B1, “2,6-DIHYDRO-7H-PYRAZOLO[3,4-C]PYRIDIN-7-ONE DERIVATIVES AS ANTI-MALARIAL AGENTS” (MMV Medicines for Malaria Venture, priority 2024, dated 2025).

Legend:
P. falciparum DHODH = molecular target: T1, P. falciparum DHODH (Plasmodium falciparum, UniProt Q08210); test: DHODH inhibition, steady-state DCIP assay (PfDHODH); type: biochemical; settings: recombinant PfDHODH, DCIP method, 25°C, 5 nM enzyme
T1 construct: His6 (N); made in house; host or cells: E. coli BL21-DE3 (phage-resistant)
Protocol: (§1) Compound stocks were prepared at 10-100 mM in DMSO, and diluted working stocks in DMSO were generated as appropriate. Compounds were plated from DMSO stocks in 96 well plate format using a Tecan D300e digital dispenser to generate a 3-fold dilution series over a concentration range of 0.0003 -100 µM (or 30 µM), yielding a final DMSO concentration of 1% in the assay. The top concentration used in the dose response was determined by the initial DMSO stock concentrations:100 µM for 100 mM stocks, and 30 µM for 10 mM stocks. Triplicate rate data were collected at each inhibitor concentration. Inhibitory IC50 values were determined by fitting the data to log (inhibitor) vs response equation Y = bottom + (top - bottom)/(1 + 10A ((X - Log IC50))) in GraphPad Prism.

P. falciparum 3D7 = test: Asexual blood-stage growth inhibition assay, SYBR green method; type: cell-based; settings: Plasmodium falciparum, 3D7, 72 h, ring-stage 3D7 parasites
Protocol: Asexual blood-stage EC50 assays. […] Compound stocks prepared in DMSO were plated using a Tecan D300e automated low volume liquid handler. Ring-stage 3D7 or Dd2 parasites (60 µL cells) (2% hematocrit, 0.5% parasitemia, final DMSO concentration 0.5%) were added to plates, incubated with compounds over a range of concentrations in technical triplicate for 72 h at 37 °C, 5% CO2, and then frozen (-80°C) overnight before analysis. […] Data were analyzed by non-linear regression using GraphPad Prism to determine the EC50 by fitting to the built-in equation (log(inhibitor) vs response-variable slope with four parameters).

Human DHODH = molecular target: T2, Human DHODH (Homo sapiens, UniProt Q02127); test: DHODH inhibition, steady-state DCIP assay (human DHODH); type: biochemical; settings: recombinant HsDHODH, DCIP method, 25°C, 5 nM enzyme; top concentration 100 µM or 30 µM
T2 construct: C-terminal His6-tagged HsDHODH residues 29-395 in pET-22b (start ^29MATGDE); His6 (C); made in house; host or cells: E. coli BL21-DE3 (phage-resistant)
Text: (§2) DOI: 10.1074/jbc.M206854200).
(§3) Proteins were expressed and purified on a Pharmacia FPLC using HisTrap HP column chromatography followed by gel filtration chromatography on a Pharmacia HiLoad 16/600 Superdex 200 column, and protein concentration determined based on OD280 using the previously described extinction coefficients (Kokkonda et al., 2020, J Med Chem, 63 (9), 4929-4956. DOI: 10.1021/acs.jmedchem.0c00311). Purified proteins were >95% pure based on SDS-PAGE analysis.
(§4) DHODH activity was monitored in a steady-state assay using the 2,6-dichloroindophenol (DCIP) method at 25°C in assay buffer (100 mM HEPES, pH 8.0, 150 mM NaCl, 1% glycerol, 0.1% Triton X-100 reduced) plus substrates 20 µM CoQD, 200 µM DHO, 120 µM DCIP, and 5 nM enzyme as previously described (Malmquist et al, 2008, Biochemistry, 47 (8), 2466-2475. DOI: 10.1021/bi702218c).
as §1, with “Prism. DSM265 ^2 was plated as an assay control in all studies.” for “Prism.”

P. vivax DHODH = P. vivax DHODH (Plasmodium vivax, UniProt A5K1N1); test: DHODH inhibition, steady-state DCIP assay (PvDHODH); type: biochemical; settings: recombinant PvDHODH, DCIP method, 25°C, 5 nM enzyme; read-out: P. vivax DHODH (IC50)
Text: as §2, §3, §4
as §1, with “Prism. DSM265 ^2 was plated as an assay control in all studies.” for “Prism.”

T1 sequence (Q08210 158-569): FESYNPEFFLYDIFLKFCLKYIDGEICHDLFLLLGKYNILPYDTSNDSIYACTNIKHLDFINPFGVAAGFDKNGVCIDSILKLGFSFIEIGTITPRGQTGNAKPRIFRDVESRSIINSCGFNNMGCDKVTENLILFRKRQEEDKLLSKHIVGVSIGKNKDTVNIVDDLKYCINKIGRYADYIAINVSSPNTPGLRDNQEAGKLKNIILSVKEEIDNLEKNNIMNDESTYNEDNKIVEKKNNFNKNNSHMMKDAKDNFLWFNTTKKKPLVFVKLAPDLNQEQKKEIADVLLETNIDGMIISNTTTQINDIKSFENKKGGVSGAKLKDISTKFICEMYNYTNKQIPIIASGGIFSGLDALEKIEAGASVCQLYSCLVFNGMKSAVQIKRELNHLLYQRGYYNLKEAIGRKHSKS
Sequence of P. vivax DHODH (A5K1N1 entry or part of it): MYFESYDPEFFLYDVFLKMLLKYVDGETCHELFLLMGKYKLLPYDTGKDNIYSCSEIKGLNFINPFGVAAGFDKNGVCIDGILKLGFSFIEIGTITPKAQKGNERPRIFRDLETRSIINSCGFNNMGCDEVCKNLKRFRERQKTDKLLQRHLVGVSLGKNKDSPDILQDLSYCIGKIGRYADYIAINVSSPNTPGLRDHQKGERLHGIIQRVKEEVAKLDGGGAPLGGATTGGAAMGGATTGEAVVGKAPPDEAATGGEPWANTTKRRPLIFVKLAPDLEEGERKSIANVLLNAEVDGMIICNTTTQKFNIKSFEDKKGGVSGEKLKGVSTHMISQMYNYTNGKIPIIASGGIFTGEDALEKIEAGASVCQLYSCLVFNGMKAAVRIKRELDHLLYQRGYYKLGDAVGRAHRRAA
T2 sequence (Q02127 29-395): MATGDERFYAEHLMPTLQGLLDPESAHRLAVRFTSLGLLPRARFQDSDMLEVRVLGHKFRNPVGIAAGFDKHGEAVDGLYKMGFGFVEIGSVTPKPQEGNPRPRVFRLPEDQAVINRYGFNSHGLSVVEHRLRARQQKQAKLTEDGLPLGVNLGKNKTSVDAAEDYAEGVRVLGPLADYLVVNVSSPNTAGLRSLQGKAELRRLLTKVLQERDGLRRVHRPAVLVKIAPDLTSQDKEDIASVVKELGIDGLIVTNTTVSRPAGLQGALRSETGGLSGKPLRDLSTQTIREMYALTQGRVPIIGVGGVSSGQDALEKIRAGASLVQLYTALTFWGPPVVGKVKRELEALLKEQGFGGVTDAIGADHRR

Structure (SMILES) | IC50 (P. falciparum DHODH) [µM] | EC50 (P. falciparum 3D7) [µM] | IC50 (Human DHODH) [µM] | IC50 (P. vivax DHODH) [µM]
CCn1ccc2c([C@](C)(O)c3ccc(C(F)(F)F)c(Cl)c3)n(C)nc2c1=O (single isomer, unassigned) [1-46] | 0.01 | 0.0002 | 41 | 0.0058
CCn1ccc2c([C@](O)(c3ccc(C(F)(F)F)nc3)C(C)C)n(C)nc2c1=O (single isomer, unassigned) [1-48] | 0.081 | 0.018 | > 100 | 0.044
CCn1ccc2c([C@@](O)(CC)c3ccc(C(F)(F)F)nc3)n(C)nc2c1=O (single isomer, unassigned) [1-50] | 0.054 | 0.0015 | 46 | 0.027
CC[C@@](O)(c1cnc(C(F)(F)F)c(Cl)c1)c1c2cnn(C3CC3)c(=O)c2nn1C1CC1 (single isomer, unassigned) [2-1] | 0.029 | 0.012 | 2.3 | 0.01
CCn1nc2c(=O)n(C3CC3)ncc2c1[C@@](O)(CC)c1cnc(C(F)(F)F)c(Cl)c1 (single isomer, unassigned) [2-3] | 0.029 | 0.0099 | 2.7 | 0.011
CC[C@@](O)(c1ccc(C(F)(F)F)c(C#N)c1)c1c2cnn(C3CC3)c(=O)c2nn1C (single isomer, unassigned) [2-5] | 0.019 | 0.0013 | 4.8 | 0.019
Cn1nc2c(=O)n(C3CC3)ncc2c1[C@](O)(c1ccc(C(F)(F)F)c(C#N)c1)C1CC1 (single isomer, unassigned) [2-7] | 0.023 | 0.0042 | > 30 | 0.017
Cn1nc2c(=O)n(C3CC3)ncc2c1[C@](O)(c1ccc(C(F)(F)F)c(Cl)c1)C1CC1 (single isomer, unassigned) [2-11] | 0.0096 | 0.0019 | > 30 | 0.0099
CC[C@@](O)(c1ccc(C(F)(F)F)c(Cl)c1)c1c2cnn(C3CC3)c(=O)c2nn1C (single isomer, unassigned) [2-15] | 0.0062 | 0.00032 | 1.7 | 0.0098
CC[C@@](O)(c1ccc(F)c(Cl)c1)c1c2cnn(C3CC3)c(=O)c2nn1C (single isomer, unassigned) [2-17] | 0.0084 | 0.0017 | 2.5 | 0.0095
CCn1ncc2c([C@@](O)(CC)c3ccc(C(F)(F)F)c(Cl)c3)n(C)nc2c1=O (single isomer, unassigned) [2-19] | 0.0069 | 0.00035 | 11 | 0.0029
Cn1nc2c(=O)n(C3CC3)cnc2c1[C@](C)(O)c1cnc(C(F)(F)F)c(Cl)c1 (single isomer, unassigned) [3-1] | 0.021 | 0.0022 | > 30 | 0.0079
Cn1nc2c(=O)n(C3CC3)cnc2c1[C@](O)(c1cnc(C(F)(F)F)c(Cl)c1)C1CC1 (single isomer, unassigned) [3-3] | 0.022 | 0.004 | > 30 | 0.0083
CC[C@@](O)(c1ccc(C(F)(F)F)nc1)c1c2ncn(C3CC3)c(=O)c2nn1C (single isomer, unassigned) [3-7] | 0.027 | 0.0016 | 14 | 0.055
Cn1nc2c(=O)n(C3CC3)cnc2c1[C@](O)(c1ccc(C(F)(F)F)nc1)C1CC1 (single isomer, unassigned) [3-9] | 0.048 | 0.012 | > 30 | 0.059
